Results reported in patent US20210046084A1, “TREATMENT OF ADVANCED ESTROGEN RECEPTOR POSITIVE BREAST CANCER” (ESTETRA SPRL, priority 2018, published 2021).
Read-outs that look alike come from different tables or passages of the source.

Legend:
[1] = Plasma levels and tolerability of estetrol after daily oral administration in female patients; type: in vivo, human; details: for Trough plasma level: average of Day 7 and Day 14; for Cmax: human, plasma, read-out: Cmax plasma level
Procedure: For each group dosed at 2, 10, 20 and 40 mg estetrol daily (oral administration), 9 to 10 female patients were tested for their plasma content in estetrol at Day 7 and at Day 14. For each dose group, the average trough level of all patients across both days was calculated.

[2] = tested on: long term estrogen deprived MCF7 breast cancer cells (LTED cells); assay: Growth of long term estrogen deprived MCF7 cells, cell count analysis; type: cell-based; details: for Cell number per well: LTED cells, count on Day 7, control 5.36
Procedure: In order to assess the potential of an estetrol component to inhibit the growth of estrogen deprived breast cancer cells, in vitro studies in long term estrogen deprived MCF7 breast cancer cells (LTED cells) were conducted. LTED cells are deprived of estrogen, making them a suitable in vitro model to study drug effects in women who have been using estrogen activity suppressors for a long time.
LTED cells were plated in 6-well plates at a density of 30,000 cells per well. The cells were maintained in phenol red free IMEM with 5% charcoal stripped FBS (DCC-FBS). On Day 3, the medium was replaced with fresh phenol red free IMEM with 5% DCC-FBS. The cells were then exposed to 6 different concentrations of estetrol ranging from 10^−12 M to 10^−7 M or to ethanol as vehicle control. The final vehicle concentration was 0.1% ethanol for all experiments. Each treatment was made in duplicate.
On Day 5, the medium was changed and on Day 7 plates were subjected to a cell count analysis.

[3] = tested on: ER+ locally advanced and/or metastatic breast cancer; assay: Phase I/IIa dose-escalation study of E4 in advanced breast cancer (patient of Example 4); type: in vivo, human; details: 20 mg E4 per day oral, 12 weeks
Procedure: An open-label, phase I/11a trial, dose-escalation study with a 3+3 cohort design is carried out to determine the recommended dose of E4 for the treatment of patients with advanced breast cancer. After completing the phase I part of the study (i.e. 4 weeks of treatment), patients receive further treatment for 8 weeks at their individual phase I dose level (phase IIa part of the study). Patients are treated for 12 weeks. Treatment continues after 12 weeks of treatment until the patient is withdrawn from the study either due to unacceptable adverse events (AEs) or disease progression. These patients are followed up according to clinical practice including radiological tumour assessments.
In total at least 9 patients with ER+ locally advanced and/or metastatic breast cancer having exhausted all treatment options are enrolled in the study. Patients are at least 5 years postmenopausal and have failed anti-estrogen treatment with tamoxifen and aromatase inhibitor because the cancer has become resistant to treatment with tamoxifen or aromatase inhibitor, or because the patient has discontinued treatment due to unacceptable side-effects. No treatment with fulvestrant is allowed within 6 months prior to the start of the E4 treatment.
• to assess quality of life in advanced breast cancer patients treated with E4, using specific questions on estrogen deficiency symptoms; • to assess preliminary anti-tumour response of E4 in patients with advanced breast cancer, according to RECIST 1.1 at the end of the study (i.e. after 12 weeks); • to assess the trough (Cmin) levels of E4 in patients with advanced breast cancer, by measuring E4 plasma concentrations before dosing at different time points during the study.
• to evaluate the safety profile of E4 in patients with advanced breast cancer by: • Performing routine laboratory parameters; • Performing physical examination; • Measuring vital signs; • Measuring electrocardiograms (ECGs); • Recording and monitoring of incidence and severity of clinical AEs and SAEs; • Radiological tumour assessments.
After completing the phase I part of the study (i.e. 4 weeks of treatment), patients receive further treatment for 8 weeks at their individual phase I dose level (phase IIa part of the study). The phase IIa part of the study includes explorative efficacy assessments to evaluate potential anti-tumour effects of E4 by RECIST criteria based on evaluation of pre- and end of treatment imaging.
Treatment is escalated in doses of 20 mg, 40 mg and 60 mg E4 across cohorts according to the 3+3 design until the non-tolerable dose is determined or the maximum anticipated dose (MAD) of 60 mg is reached. Patients are treated once daily with an oral administration of E4. […]

SHBG = target: T1, SHBG (Homo sapiens, UniProt P04278); details: cited from earlier work
T1 sequence (P04278 30-402): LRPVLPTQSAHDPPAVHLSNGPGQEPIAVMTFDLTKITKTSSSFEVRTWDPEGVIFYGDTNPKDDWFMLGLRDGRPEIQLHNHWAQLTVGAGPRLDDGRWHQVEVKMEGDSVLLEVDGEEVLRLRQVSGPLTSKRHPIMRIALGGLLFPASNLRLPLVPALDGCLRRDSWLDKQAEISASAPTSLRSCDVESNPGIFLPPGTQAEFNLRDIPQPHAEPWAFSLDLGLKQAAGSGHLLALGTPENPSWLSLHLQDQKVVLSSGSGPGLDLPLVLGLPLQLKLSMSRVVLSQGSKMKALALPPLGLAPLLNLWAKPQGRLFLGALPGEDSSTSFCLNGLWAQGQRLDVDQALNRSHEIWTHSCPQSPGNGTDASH

C[C@]12CC[C@@H]3c4ccc(O)cc4CC[C@H]3[C@@H]1[C@@H](O)[C@@H](O)[C@@H]2O [estetrol, estra-1,3,5(10)-triene-3,15α,16α,17β-tetrol]
Trough plasma level ([1]; 2 mg daily oral dose): 240 pg/mL | Cmax plasma level ([1]; 10 mg daily oral dose): 9,500 pg/mL | Trough plasma level ([1]; 20 mg daily oral dose): 1,950 pg/mL | Trough plasma level ([1]; 40 mg daily oral dose): 5,070 pg/mL | Tolerability ([1]; 2, 10, 20 and 40 mg daily oral): well tolerated | Cmax ([1]; 2 mg daily oral dose): 1.3 ng/mL | Cmax ([1]; 20 mg daily oral dose): 23.5 ng/mL | Cmax ([1]; 40 mg daily oral dose): 82.7 ng/mL | Cell number per well ([2]; 10^−7 M estetrol): 0.49 ×10^5 | Cell number per well ([2]; 10^−8 M estetrol): 0.59 ×10^5 | Cell number per well ([2]; 10^−9 M estetrol): 0.56 ×10^5 | Cell number per well ([2]; 10^−10 M estetrol): 0.63 ×10^5 | Cell number per well ([2]; 10^−11 M estetrol): 3.62 ×10^5 | Cell number per well ([2]; 10^−12 M estetrol): 5.58 ×10^5 | Inhibition of growth of LTED cells ([2]; 10^−12 M to 10^−7 M): able to inhibit the growth of LTED cells | Concentration at which peak inhibition of LTED cell growth is observed ([2]; no further inhibition at higher concentrations): 10^−10 M | Effect on quality of life (QOL) [3]: advantageous effect | Adverse event considered related to treatment ([3]; only one related AE, patient): breast tenderness with mild intensity | Tolerability of treatment ([3]; patient): tolerated the treatment very well | Tumour burden during treatment ([3]; progressive disease at start): remained stable | Binding to SHBG (SHBG): does not bind to SHBG

C[C@]12CC[C@@H]3c4ccc(O)cc4CC[C@H]3[C@@H]1CC[C@@H]2O [estradiol, 17beta-estradiol, reference compound]
Binding to SHBG (affinity) (SHBG; Hammond G L et al., Climacteric 2008): about 40%
